Results taken from US10105357B2, “Indication of antibiotic drugs for preparation of cancer inhibition pharmaceutical composition” (LAUNX BIOMEDICAL CO., LTD., priority 2014, dated 2018).
Read-outs that look alike come from different tables or passages of the source.

Columns and labels:
[1] = test system: BxPC-3; test: Cell viability analysis, pancreatic cancer BxPC-3; format: cell-based, human; settings: Homo sapiens, 72 h; BxPC-3; repeated experiment; read-out: The results of antibiotic drug inhibiting cancer cell lines (cell viability analysis), BxPC-3
[2] = test system: MKN-45 (Gastric Adenocarcinoma); test: Cell viability analysis, gastric cancer MKN-45; format: cell-based, human; settings: for viability at 10 µM: Homo sapiens, MKN-45, 72 h
[3] = test system: HL-60 (Acute Promyelocytic Leukemia); test: Cell viability analysis, leukemia HL-60; format: cell-based, human; settings: Homo sapiens, HL-60, 72 h, drug 10 μM, 72 hours, WST-1, OD450 nm; read-out: cell viability (survival rate), HL-60
[4] = test system: SAS (Tongue squamous cell carcinoma); test: Cell viability analysis, tongue cancer SAS; format: cell-based, human; settings: SAS, repeated experiment
[5] = test system: TOV-21G; test: Cell viability analysis, ovarian cancer TOV-21G; format: cell-based, human; settings: TOV-21G, repeated experiment
[6] = test system: NIH: OVCAR-3; test: Cell viability analysis, ovarian cancer NIH: OVCAR-3; format: cell-based, human; settings: NIH-OVCAR-3, repeated experiment
[7] = test system: U-2OS; test: Cell viability analysis, osteosarcoma U-2OS; format: cell-based, human; settings: U2OS, repeated experiment
[8] = test system: AGS (Gastric Adenocarcinoma); test: Cell viability analysis, gastric cancer AGS; format: cell-based, human; settings: for viability at 10 µM: Homo sapiens, 72 h
[9] = test system: T24; test: Cell viability analysis, bladder cancer T24; format: cell-based, human; settings: T24, repeated experiment
[10] = test system: AsPC-1; test: Cell viability analysis, pancreatic cancer AsPC-1; format: cell-based, human; settings: Homo sapiens, ASPC1, 72 h; AsPC-1; repeated experiment; read-out: The results of antibiotic drug inhibiting cancer cell lines (cell viability analysis), AsPC-1
[11] = test system: TSGH-8301 (Urinary Bladder Carcinoma); test: Cell viability analysis, bladder cancer TSGH-8301; format: cell-based, human; settings: for viability at 10 µM: Homo sapiens, 72 h
[12] = test system: MDA-MB-231 (Mammary Gland, Adenocarcinoma); test: Cell viability analysis, breast cancer MDA-MB-231; format: cell-based, human; settings: MDA-MB231, repeated experiment
[13] = test system: HI650 (Lung Adenocarcinoma); test: Cell viability analysis, lung cancer HI650; format: cell-based, human; settings: Homo sapiens, NCI-H1650, 72 h
[14] = test system: A549 (Lung Adenocarcinoma); test: Cell viability analysis, lung cancer A549; format: cell-based, human; settings: Homo sapiens, A549, 72 h
[15] = test system: Hep3B (hepatocellular carcinoma); test: Cell viability analysis, hepatic cancer Hep3B; format: cell-based, human; settings: Hep3B, repeated experiment
[16] = test system: 786-O (Renal adenocarcinoma); test: Cell viability analysis, renal cancer 786-O; format: cell-based, human; settings: 786-O, repeated experiment
[17] = test system: HepG2 (Hepatocellular Carcinoma); test: Cell viability analysis, hepatic cancer HepG2; format: cell-based, human; settings: for viability at 10 µM: Homo sapiens, HepG2, 72 h
[18] = test system: BCC (basal cell carcinoma); test: Cell viability analysis, skin cancer BCC; format: cell-based, human; settings: BCC, repeated experiment
[19] = test system: PC3 (p53−) (Prostate Adenocarcinoma); test: Cell viability analysis, prostate cancer PC3; format: cell-based, human; settings: for viability at 10 µM: Homo sapiens, 72 h
[20] = test system: MCF7 (Mammary Gland, Adenocarcinoma); test: Cell viability analysis, breast cancer MCF7; format: cell-based, human; settings: for viability at 10 µM: Homo sapiens, MCF7, 72 h
[21] = test system: A375 (Amelanotic Melanoma); test: Cell viability analysis, skin cancer A375; format: cell-based, human; settings: Homo sapiens, A-375, 72 h
[22] = test system: LoVo (Colorectal Adenocarcinoma); test: Cell viability analysis, colon cancer LoVo; format: cell-based, human; settings: LoVo, repeated experiment
[23] = test system: HeLa (Cervix Adenocarcinoma); test: Cell viability analysis, cervical cancer HeLa; format: cell-based, human; settings: Homo sapiens, HeLa, 72 h, HeLa; repeated experiment; read-out: The results of antibiotic drug inhibiting cancer cell lines (cell viability analysis), HeLa
[24] = test system: cancer cell lines; test: Cell viability analysis (WST-1) on cancer cell lines; format: cell-based, human; settings: drug 10 μM, 72 hours, WST-1; Table 3
[25] = test system: HCT116 (p53+) (Colorectal Carcinoma)
[26] = test system: C-33A (Cervical carcinoma); test: Cell viability analysis, cervical cancer C-33A; format: cell-based, human; settings: C-33A; repeated experiment

With `CC(C)c1nc(N(C)S(C)(=O)=O)nc(-c2ccc(F)cc2)c1/C=C/[C@@H](O)C[C@@H](O)CC(=O)O` [Rosuvastatin calcium (Crestor), Rosuvastatin calcium] the viability at 10 µM [1] was 65.5%, the viability at 10 µM ([2]; MKN-45, repeated experiment, read-out: The results of antibiotic drug inhibiting cancer cell lines (cell viability analysis), MKN-45) was 110% and the viability at 10 µM ([2]; drug 10 μM, 72 hours, WST-1, OD450 nm, read-out: cell viability (survival rate), MKN-45) was 83.8%. It also gave a viability at 10 µM [3] of 81.7%, a viability at 10 µM ([4]; Homo sapiens, 72 h, read-out: The results of antibiotic drug inhibiting cancer cell lines (cell viability analysis), SAS) of 93.3% and a viability at 10 µM ([5]; Homo sapiens, TOV21G, 72 h, read-out: The results of antibiotic drug inhibiting cancer cell lines (cell viability analysis), TOV-21G) of 80.4%. The viability at 10 µM ([6]; Homo sapiens, 72 h, read-out: The results of antibiotic drug inhibiting cancer cell lines (cell viability analysis), NIH-OVCAR-3) was 102%, the viability at 10 µM ([7]; Homo sapiens, 72 h, read-out: The results of antibiotic drug inhibiting cancer cell lines (cell viability analysis), U2OS) was 102% and the viability at 10 µM ([8]; AGS, repeated experiment, read-out: The results of antibiotic drug inhibiting cancer cell lines (cell viability analysis), AGS) was 104%. It also gave a viability at 10 µM ([8]; drug 10 μM, 72 hours, WST-1, OD450 nm, read-out: cell viability (survival rate), AGS) of 55.9%, a viability at 10 µM ([9]; Homo sapiens, T-24, 72 h, read-out: The results of antibiotic drug inhibiting cancer cell lines (cell viability analysis), T24) of 75.9% and a viability at 10 µM [10] of 80.2%. For the same molecule, the viability at 10 µM ([11]; TSGH-8301, repeated experiment, read-out: The results of antibiotic drug inhibiting cancer cell lines (cell viability analysis), TSGH-8301) was 113%, the viability at 10 µM ([11]; drug 10 μM, 72 hours, WST-1, OD450 nm, read-out: cell viability (survival rate), TSGH) was 56% and the viability at 10 µM ([12]; Homo sapiens, MDA-MB-231, 72 h, read-out: The results of antibiotic drug inhibiting cancer cell lines (cell viability analysis), MDA-MB231) was 90.2%. The viability at 10 µM ([13]; H1650, repeated experiment, read-out: The results of antibiotic drug inhibiting cancer cell lines (cell viability analysis), H1650) was 76.7%, the viability at 10 µM ([13]; drug 10 μM, 72 hours, WST-1, OD450 nm, read-out: cell viability (survival rate), H1650) was 80.8% and the viability at 10 µM ([14]; A549, repeated experiment, read-out: The results of antibiotic drug inhibiting cancer cell lines (cell viability analysis), A549) was 95.1%. The viability at 10 µM ([14]; drug 10 μM, 72 hours, WST-1, OD450 nm, read-out: cell viability (survival rate), A549) was 97%, the viability at 10 µM ([15]; Homo sapiens, 72 h, read-out: The results of antibiotic drug inhibiting cancer cell lines (cell viability analysis), Hep3B) was 109% and the viability at 10 µM ([16]; Homo sapiens, 786-0, 72 h, read-out: The results of antibiotic drug inhibiting cancer cell lines (cell viability analysis), 786-O) was 92.5%. It also gave a viability at 10 µM ([17]; HepG2, repeated experiment, read-out: The results of antibiotic drug inhibiting cancer cell lines (cell viability analysis), HepG2) of 108%, a viability at 10 µM ([17]; drug 10 μM, 72 hours, WST-1, OD450 nm, read-out: cell viability (survival rate), HepG2) of 73.7% and a viability at 10 µM ([18]; Homo sapiens, 72 h, read-out: The results of antibiotic drug inhibiting cancer cell lines (cell viability analysis), BCC) of 104%. For the same molecule, the viability at 10 µM ([19]; PC-3, repeated experiment, read-out: The results of antibiotic drug inhibiting cancer cell lines (cell viability analysis), PC-3) was 95.7%, the viability at 10 µM ([19]; drug 10 μM, 72 hours, WST-1, OD450 nm, read-out: cell viability (survival rate), PC3) was 94.3% and the viability at 10 µM ([20]; MCF-7, repeated experiment, read-out: The results of antibiotic drug inhibiting cancer cell lines (cell viability analysis), MCF-7) was 85.9%. It also gave a viability at 10 µM ([20]; drug 10 μM, 72 hours, WST-1, OD450 nm, read-out: cell viability (survival rate), MCF7) of 88.9%, a viability at 10 µM ([21]; A375, repeated experiment, read-out: The results of antibiotic drug inhibiting cancer cell lines (cell viability analysis), A375) of 105% and a viability at 10 µM ([21]; drug 10 μM, 72 hours, WST-1, OD450 nm, read-out: cell viability (survival rate), A375) of 55.6%. For the same molecule, the viability at 10 µM ([22]; Homo sapiens, 72 h, read-out: The results of antibiotic drug inhibiting cancer cell lines (cell viability analysis), LoVo) was 103%, the viability at 10 µM [23] was 97.1% and the “inhibition effect on different cancer cell lines” value [24] was “significant inhibition effect”. The viability [25] was 85.6%.
`CN[C@H](CC(C)C)C(=O)N[C@H]1C(=O)N[C@@H](CC(N)=O)C(=O)N[C@H]2C(=O)N[C@H]3C(=O)N[C@H](C(=O)N[C@H](C(=O)O)c4cc(O)cc(O)c4-c4cc3ccc4O)[C@H](O)c3ccc(c(Cl)c3)Oc3cc2cc(c3O[C@@H]2O[C@H](CO)[C@@H](O)[C@H](O)[C@H]2O[C@H]2C[C@](C)(N)[C@H](O)[C@H](C)O2)Oc2ccc(cc2Cl)[C@H]1O.Cl` [Vancomycin HCl (Vancocin)] was tested, and the “The results of antibiotic drug inhibiting cancer cell lines (cell viability analysis), MKN-45” value ([2]; MKN-45, repeated experiment) was 116.9, the “The results of antibiotic drug inhibiting cancer cell lines (cell viability analysis), SAS” value [4] was 102 and the “The results of antibiotic drug inhibiting cancer cell lines (cell viability analysis), TOV-21G” value [5] was 97.4. For the same molecule, the “The results of antibiotic drug inhibiting cancer cell lines (cell viability analysis), NIH-OVCAR-3” value [6] was 105.6, the “The results of antibiotic drug inhibiting cancer cell lines (cell viability analysis), U2OS” value [7] was 62.87 and the “The results of antibiotic drug inhibiting cancer cell lines (cell viability analysis), AGS” value ([8]; AGS, repeated experiment) was 108.9. For the same molecule, the “The results of antibiotic drug inhibiting cancer cell lines (cell viability analysis), T24” value [9] was 95.32, the “The results of antibiotic drug inhibiting cancer cell lines (cell viability analysis), TSGH-8301” value ([11]; TSGH-8301, repeated experiment) was 118 and the “The results of antibiotic drug inhibiting cancer cell lines (cell viability analysis), MDA-MB231” value [12] was 90.26. The “The results of antibiotic drug inhibiting cancer cell lines (cell viability analysis), C-33A” value [26] was 100.6, the “The results of antibiotic drug inhibiting cancer cell lines (cell viability analysis), Hep3B” value [15] was 94.6 and the “The results of antibiotic drug inhibiting cancer cell lines (cell viability analysis), 786-O” value [16] was 102.3. The “The results of antibiotic drug inhibiting cancer cell lines (cell viability analysis), HepG2” value ([17]; HepG2, repeated experiment) was 92.06, the “The results of antibiotic drug inhibiting cancer cell lines (cell viability analysis), BCC” value [18] was 96.78 and the “The results of antibiotic drug inhibiting cancer cell lines (cell viability analysis), PC-3” value ([19]; PC-3, repeated experiment) was 104.2. The “The results of antibiotic drug inhibiting cancer cell lines (cell viability analysis), MCF-7” value ([20]; MCF-7, repeated experiment) was 91.83, the “The results of antibiotic drug inhibiting cancer cell lines (cell viability analysis), LoVo” value [22] was 101 and the viability [25] was 94.8%.
